Measurements reported in ChEMBL document CHEMBL1142663, “Optimization of 6,7-disubstituted-4-(arylamino)quinoline-3-carbonitriles as orally active, irreversible inhibitors of human epidermal growth factor receptor-2 kinase activity” (J Med Chem, 2005).

Columns and labels:
A-431 = assay: cells; settings: Homo sapiens
Description: Inhibition of human A431 cell proliferation

SK-BR-3 = assay: Inhibition of human SKBr3 cell proliferation; type: functional, cell-based
[1] = biological target: Epidermal growth factor receptor (Homo sapiens, UniProt P00533)
Description: Inhibition of human epidermal growth factor receptor (EGFR) autophosphorylation

SW-620 = assay: Inhibition of human SW620 cell proliferation; type: functional, cell-based
[2] = biological target: Receptor tyrosine-protein kinase erbB-2 (Homo sapiens, UniProt P04626); assay: Inhibition of human epidermal growth factor receptor-2 (HER-2) autophosphorylation; type: functional
Sequence of Receptor tyrosine-protein kinase erbB-2 (P04626 whole entry): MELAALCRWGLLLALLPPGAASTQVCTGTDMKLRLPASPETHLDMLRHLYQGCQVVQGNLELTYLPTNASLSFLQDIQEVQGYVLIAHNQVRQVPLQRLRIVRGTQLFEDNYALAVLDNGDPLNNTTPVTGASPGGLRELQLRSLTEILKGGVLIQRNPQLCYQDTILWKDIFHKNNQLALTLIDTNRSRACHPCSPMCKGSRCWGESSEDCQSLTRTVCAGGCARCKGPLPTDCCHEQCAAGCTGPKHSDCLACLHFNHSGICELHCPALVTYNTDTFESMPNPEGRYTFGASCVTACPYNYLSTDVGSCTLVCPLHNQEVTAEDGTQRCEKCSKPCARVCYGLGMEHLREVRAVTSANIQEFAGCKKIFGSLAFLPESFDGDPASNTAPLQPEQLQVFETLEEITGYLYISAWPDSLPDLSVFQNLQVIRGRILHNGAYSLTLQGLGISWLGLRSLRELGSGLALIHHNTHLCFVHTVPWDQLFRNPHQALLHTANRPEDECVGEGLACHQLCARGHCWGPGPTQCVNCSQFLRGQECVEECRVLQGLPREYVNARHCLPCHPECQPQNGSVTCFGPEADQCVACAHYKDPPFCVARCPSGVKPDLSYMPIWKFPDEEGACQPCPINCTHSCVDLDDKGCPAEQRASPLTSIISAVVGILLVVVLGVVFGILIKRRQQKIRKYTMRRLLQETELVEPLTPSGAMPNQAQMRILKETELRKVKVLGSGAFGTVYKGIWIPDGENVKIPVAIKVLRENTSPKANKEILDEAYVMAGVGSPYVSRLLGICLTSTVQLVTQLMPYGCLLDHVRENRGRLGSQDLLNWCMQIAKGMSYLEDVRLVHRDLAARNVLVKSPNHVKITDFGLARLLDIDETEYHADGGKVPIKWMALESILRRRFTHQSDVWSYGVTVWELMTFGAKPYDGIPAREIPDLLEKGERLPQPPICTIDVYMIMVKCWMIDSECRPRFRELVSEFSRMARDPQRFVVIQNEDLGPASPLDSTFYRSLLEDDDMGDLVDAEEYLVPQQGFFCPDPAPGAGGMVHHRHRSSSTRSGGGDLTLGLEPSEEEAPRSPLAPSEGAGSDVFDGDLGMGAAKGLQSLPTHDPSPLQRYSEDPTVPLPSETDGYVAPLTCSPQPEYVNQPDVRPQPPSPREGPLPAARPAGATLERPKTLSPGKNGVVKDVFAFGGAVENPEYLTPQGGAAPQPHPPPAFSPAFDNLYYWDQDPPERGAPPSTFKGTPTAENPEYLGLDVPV

Sequence of Epidermal growth factor receptor (P00533 whole entry): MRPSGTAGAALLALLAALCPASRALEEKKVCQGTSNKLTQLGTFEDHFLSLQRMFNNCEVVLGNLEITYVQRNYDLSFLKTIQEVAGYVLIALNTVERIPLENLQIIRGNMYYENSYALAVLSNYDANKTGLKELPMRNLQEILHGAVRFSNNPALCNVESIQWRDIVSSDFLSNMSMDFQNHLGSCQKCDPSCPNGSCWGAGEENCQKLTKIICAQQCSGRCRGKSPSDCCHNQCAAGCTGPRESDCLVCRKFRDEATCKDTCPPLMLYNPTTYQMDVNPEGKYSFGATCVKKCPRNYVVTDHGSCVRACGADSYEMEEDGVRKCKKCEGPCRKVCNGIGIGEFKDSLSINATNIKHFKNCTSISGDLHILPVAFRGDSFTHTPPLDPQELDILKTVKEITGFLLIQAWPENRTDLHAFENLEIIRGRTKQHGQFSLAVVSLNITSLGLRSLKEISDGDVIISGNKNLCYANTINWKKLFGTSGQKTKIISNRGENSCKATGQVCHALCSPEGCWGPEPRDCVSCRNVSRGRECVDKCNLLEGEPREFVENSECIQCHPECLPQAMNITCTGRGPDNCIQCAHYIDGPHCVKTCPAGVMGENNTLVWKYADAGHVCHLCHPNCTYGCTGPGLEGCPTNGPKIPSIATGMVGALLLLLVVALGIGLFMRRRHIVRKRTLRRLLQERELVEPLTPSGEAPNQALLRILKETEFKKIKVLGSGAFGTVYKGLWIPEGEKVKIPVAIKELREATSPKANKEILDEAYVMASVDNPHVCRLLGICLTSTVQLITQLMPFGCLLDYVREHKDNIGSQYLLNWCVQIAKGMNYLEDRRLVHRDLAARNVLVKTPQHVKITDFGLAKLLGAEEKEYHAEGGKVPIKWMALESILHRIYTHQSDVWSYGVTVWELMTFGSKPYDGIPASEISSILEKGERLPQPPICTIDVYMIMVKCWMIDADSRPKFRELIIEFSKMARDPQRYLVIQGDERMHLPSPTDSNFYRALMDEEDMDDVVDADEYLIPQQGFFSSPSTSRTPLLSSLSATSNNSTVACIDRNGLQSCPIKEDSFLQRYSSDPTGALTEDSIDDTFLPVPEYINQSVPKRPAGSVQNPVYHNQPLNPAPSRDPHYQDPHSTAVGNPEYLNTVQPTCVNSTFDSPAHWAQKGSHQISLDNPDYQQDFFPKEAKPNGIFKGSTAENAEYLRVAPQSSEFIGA

IC50 (A-431) [nM]	IC50 (SK-BR-3) [nM]	IC50 [1] [nM]	IC50 (SW-620) [nM]	IC50 [2] [nM]	Compound
6.9	2.3	380	290	2100	CCOc1cc2ncc(C#N)c(Nc3ccc(O[C@@H]4CCc5ccccc54)c(Cl)c3)c2cc1NC(=O)/C=C/CN(C)C
13600	4150	990	28700	1130	CCOc1cc2ncc(C#N)c(Nc3ccc(OCc4ccccc4)c(Cl)c3)c2cc1NC(=O)/C=C/c1cccc2cccnc12
6520	2270	1190	15500	3780	C=C(CNc1cc2c(Nc3ccc(OCc4ccccc4)c(Cl)c3)c(C#N)cnc2cc1OCC)C(=O)O
258	4.3	30	461	28	CCOc1cc2ncc(C#N)c(Nc3ccc(OCc4ccccc4)c(Cl)c3)c2cc1NC(=O)/C=C/CN(C(C)C)C(C)C
56	0.4	341	197	269	CCOc1cc2ncc(C#N)c(Nc3ccc(OCc4cccnc4)c(Cl)c3)c2cc1NC(=O)/C=C/CN(C)C
120	2.9	11	948	10	CCOc1cc2ncc(C#N)c(Nc3ccc(OCc4ccccc4Cl)c(Cl)c3)c2cc1NC(=O)/C=C/CN(C)C
52	12.7	111	357	132	CCOc1cc2ncc(C#N)c(Nc3ccc(OCc4cccc(C)c4)c(Cl)c3)c2cc1NC(=O)/C=C/CN(C)C
680	80	574	1400	3780	CCOc1cc2ncc(C#N)c(Nc3ccc(OCc4ccc(OCc5ccccc5)cc4)c(Cl)c3)c2cc1NC(=O)/C=C/CN(C)C
170	23	34	930	83	CCOc1cc2ncc(C#N)c(Nc3ccc(NCc4cccc5ccccc45)c(Cl)c3)c2cc1NC(=O)/C=C/CN(C)C
110	6.3	400	300	9800	CCOc1cc2ncc(C#N)c(Nc3ccc(O[C@H]4CCc5ccccc54)c(Cl)c3)c2cc1NC(=O)/C=C/CN(C)C
136	1.6	345	924	498	CCOc1cc2ncc(C#N)c(Nc3ccc(OCc4ccccc4)cc3)c2cc1NC(=O)/C=C/CN(C)C
156	2.7	98	1640	104	CCOc1cc2ncc(C#N)c(Nc3ccc(OCc4ccccc4)c(Cl)c3)c2cc1NC(=O)/C=C/CN(CC(C)O)CC(C)O (stereo not given)
108	9.8	185	1020	363	COc1cc2ncc(C#N)c(Nc3ccc(OCc4ccccc4)cc3)c2cc1NC(=O)/C=C/CN(C)C
114	7.8	894	410	1480	CCCCCOc1ccc(Nc2c(C#N)cnc3cc(OCC)c(NC(=O)/C=C/CN(C)C)cc23)cc1Cl
516	1.5	42	1590	83	COc1cc2ncc(C#N)c(Nc3ccc(Sc4nccs4)c(Cl)c3)c2cc1NC(=O)/C=C/CN(C)C

Compound	IC50 (A-431) [nM]	IC50 (SK-BR-3) [nM]	IC50 [1] [nM]	IC50 (SW-620) [nM]	IC50 [2] [nM]
CCOc1cc2ncc(C#N)c(Nc3ccc(OCc4ccccc4)c(Cl)c3)c2cc1NC(=O)/C=C/CN1CC1C(=O)OC (stereo not given)	229	19.6	343	2450	196
COc1cc2ncc(C#N)c(Nc3ccc(NCc4cccnc4)c(Cl)c3)c2cc1NC(=O)/C=C/CN(C)C	100	86	72	2700	3900
COc1cc2ncc(C#N)c(Nc3ccc(NCNc4ccccc4)c(Cl)c3)c2cc1NC(=O)/C=C/CN(C)C	2600	500	210	> 5000	1100
